Data published in article PMC11051159, “Green Synthesis of Gold Nanoparticles Using Liquiritin and Other Phenolics from Glycyrrhiza glabra and Their Anti-Inflammatory Activity” (Journal of Functional Biomaterials, 2024).
≈ marks a conversion by molar mass, not a printed value. Where two headings read alike, the source gives them in different places.

Experiments:
RAW 264.7 cells = experiment: Cell viability assay (WST-1); format: cell-based, murine; conditions: for concentration at which cell viability was significantly decreased (cytotoxic): range tested 0–100 μg/mL; for effect on cell viability (in words): 0–100 μg/mL; for IC50: Mus musculus
Protocol: (§1) The RAW 264.7 cells were seeded at 1 × 10^6 cells/mL in 96-well tissue culture-treated plates for cell viability and nitric oxide assays. The seeded cells were incubated under standard tissue culture conditions at 37 °C in a humidified atmosphere of 5% CO2 for approximately 24 h until the cells reached 70–80% confluence. The cells were subsequently exposed to the relevant AuNP conjugates, total extract, or compounds. After that, the cells were either left unstimulated or stimulated with 1 μg/mL lipopolysaccharide (LPS, from E. coli O111:B4, Sigma-Aldrich) to yield a final concentration range of 0–100 μg/mL of the appropriate treatment. The cells were then incubated overnight under standard tissue culture conditions.
(§2) The supernatants were removed after incubation, and cells were washed with phosphate-buffered saline (PBS, Lonza). Cell viability was assessed by adding 50 μL of a 1/10 dilution of 2-(4-iodophenyl)-3-(4-nitrophenyl)-5-(2,4-disulfophenyl)-2H-tetrazolium (WST-1, Roche, Basel, Switzerland) in complete DMEM medium to each well. Metabolically active cells convert the WST-1 reagent to a formazan that can be measured spectrophotometrically. Formazan formation was determined by reading the plate at 450 nm immediately after adding WST-1 and again after an incubation period of 1 h at 37 °C. The increase in absorbance is proportional to formazan formation and directly proportional to cell viability. The difference between the zero-absorbance reading and 1 hr incubation was used to calculate the percentage of cell viability. Cell viability was calculated as a percentage of the control using the below formula:(1) Cell viability as a % of Control=T1−T0/U1−U0×100 where T1 is the absorbance of the treated sample after 1 h, T0 is the absorbance of the treated at 0 h, U1 is the absorbance of the untreated sample after 1h, and U0 is the absorbance of the untreated sample at 0 h.

[1] = test system: NO production, RAW 264.7 cells; experiment: Nitric oxide (NO) assay (Griess reaction); format: cell-based, murine; conditions: for IC50: Mus musculus, RAW264.7, RAW 264.7, 1 μg/mL LPS, pure compound, ± SEM, read-out: Approximate NO IC50, +LPS, Comp.; for concentration at which NO production / inflammatory activity was reduced: non-toxic concentrations
Protocol: as §1
In the initial development of the assay, polymyxin inhibition of LPS inflammatory activity was checked. Polymyxin was established to inhibit LPS-induced inflammatory activity in macrophage cultures. Cell culture supernatants were removed after the overnight incubation with the relevant treatment. They were used to determine the amount of nitrite produced by the cells and used as an indication of NO production. The amount of NO produced was determined against a 0–100 μM nitrite standard range (Sigma-Aldrich). Culture supernatants or nitrite standard (50 μL) were mixed with 50 μL of Griess reagent (Sigma-Aldrich). The absorbance was subsequently read spectrophotometrically at 540 nm (Multiskan Ex, Thermo Electron Corporation, Vantaa, Finland), and the amount of NO produced by the cells was quantified. NO levels were not determined at cytotoxic concentrations.
The NO assay based on the Griess reaction was used to assess the production of NO from the RAW cells after the exposure to the NP extract/pure compounds in either the absence or presence of LPS.

B65 neuroblastomas = test system: B65 neuroblastomas; set-up: method as in PMID 28970010; conditions: after 48 h; cited from earlier work
RAW 264.7 cell = test system: RAW 264.7 cell; set-up: method as in PMID 18295200, PMID 25871879; conditions: 0–1.6 μM or 0–200 μM, 24 h; cited from earlier work
human liver cells, HepG2 = test system: human liver cells, HepG2; set-up: method as in PMID 31956937; conditions: concentrations ≥ 120 μM, 24 hrs; cited from earlier work
PC12 cells = test system: PC12 cells; set-up: method as in PMID 19789989; conditions: PC12 cells in the presence of neuronal growth factor, 3- and 5-day periods; cited from earlier work
[2] = Cell viability assay (WST-1); format: cell-based, murine; conditions: mouse, RAW 264.7 cells; −LPS, at concentrations ≥ 50 μg/mL; read-out: percentage of viable cells
Protocol: as §1, §2

[3] = RAW 264.7, absence of LPS (basal)
[4] = RAW264.7, RAW 264.7, 1 μg/mL LPS, pure compound/extract, overnight exposure, ± SEM, read-out: Approximate cell viability IC50, +LPS, Comp.
[5] = RAW264.7, RAW 264.7, unstimulated (−LPS), pure compound/extract, overnight exposure, ± SEM, read-out: Approximate cell viability IC50, −LPS, Comp.

Row | IC50 [1] | Compound | concentration at which cell viability was significantly decreased (cytotoxic) (RAW 264.7 cells; [3]) | effect on NO secretion (in words) [1, 3] | IC50 (RAW 264.7 cells; [4]) | IC50 (RAW 264.7 cells; [5]) | concentration at which cell viability was significantly decreased (cytotoxic) (RAW 264.7 cells; RAW 264.7, presence of LPS) | effect on NO secretion (in words) ([1]; RAW 264.7, presence of LPS) | also measured
1 |  | O=C(/C=C/c1ccc(O[C@@H]2O[C@H](CO)[C@@H](O)[C@H](O)[C@H]2O)cc1)c1ccc(O)cc1O [Comp. 2, isoliquiritin] | 100 µg/mL | did not affect the level of NO |  |  |  |  | effect on cell viability (in words) (RAW 264.7 cells; RAW 264.7, presence of LPS): no cytotoxicity was exhibited; effect on cell viability (in words) (RAW 264.7 cells; RAW 264.7, presence of LPS, listed as Isoliquiritin (2)): no effect on viability; effect on cell viability (in words) (RAW 264.7 cells; RAW 264.7, presence of LPS, listed as isoliquiritin (2)): did not hinder cell proliferation; concentration at which viability was reduced (B65 neuroblastomas): 100 µM; effect on RAW 264.7 cell viability (in words) (RAW 264.7 cell): not affected
2 | ~16.5 µg/mL (≈ 39.4 µM) | O=C1C[C@@H](c2ccc(O[C@@H]3O[C@H](CO)[C@@H](O)[C@H](O)[C@H]3O)cc2)Oc2cc(O)ccc21 [Comp. 1, liquiritin] | 50 to 100 µg/mL | did not elicit NO secretion | ~60.5 µg/mL (≈ 145 µM) | ~39.7 µg/mL (≈ 94.9 µM) | 50 to 100 µg/mL | inhibited NO secretion | concentration at which cell viability was significantly decreased (cytotoxic) (RAW 264.7 cells; RAW 264.7, absence of LPS (basal), listed as liquiritin (1)): ≥ 50 µg/mL; concentration at which NO production / inflammatory activity was reduced ([1]; RAW 264.7, presence of LPS, listed as Compound 1): 25 µg/mL; concentration at which NO production / inflammatory activity was reduced ([1]; RAW 264.7, presence of LPS, listed as liquiritin): ≥ 25 µg/mL; HepG2 viability (human liver cells, HepG2): below 40%; concentration at which cell viability decreased (PC12 cells): ≥ 50 µg/mL
3 |  | O=C(/C=C/c1ccc(O)cc1)c1ccc(O[C@@H]2O[C@H](CO)[C@@H](O)[C@H](O)[C@H]2O)cc1O [Comp. 3, neoisoliquiritin] |  | did not affect the level of NO |  |  |  | did not affect the level of NO | 
4 |  | isoliquiritin apioside [Comp. 4] |  | did not elicit an inflammatory response |  |  |  | did not impact NO secretion | cell viability reduced to (RAW 264.7 cells; +LPS, 25 μg/mL): 60%; cell viability reduced to (RAW 264.7 cells; +LPS, 50 μg/mL): 70%
5 |  | liquiritin apioside [Comp. 5] |  |  |  |  |  |  | concentration at which cell viability was increased (mitogenic effect) (RAW 264.7 cells; RAW 264.7, presence of LPS): 25 µg/mL; Approximate cell viability IC50, −LPS, Comp. (RAW 264.7 cells; RAW 264.7, unstimulated (−LPS), pure compound/extract, overnight exposure, ± SEM): 47.8 ± 0.2 µg/mL; cell viability reduced to (RAW 264.7 cells; −LPS, 100 μg/mL): 40%; reduction of cell viability (RAW 264.7 cells; −LPS, at concentrations ≥ 50 μg/mL): 40%
6 | ~27.5 µg/mL (≈ 84.8 µM) | CC1(C)C=Cc2c(ccc3c2OC[C@@H](c2ccc(O)cc2O)C3)O1 [Comp. 6, glabridin] | ≥ 50 µg/mL | did not affect NO production | ~27.2 µg/mL (≈ 83.9 µM) | ~28.4 µg/mL (≈ 87.6 µM) | ≥ 25 µg/mL | inhibited NO secretion | viability [2]: ≤ 30%; percentage viability (RAW 264.7 cells; +LPS, at concentrations ≥ 25 μg/mL): 65 to 9%; concentration at which toxicity was seen (RAW 264.7 cells; RAW 264.7, LPS status not stated): > 25 µg/mL; concentration at which NO production / inflammatory activity was reduced ([1]; RAW 264.7, presence of LPS): ≥ 12.5 µg/mL
